From publication PMC12044326 (Clinical Pharmacology in Drug Development, 2025)

Assays:
CYP3A4 = assay: PBPK elimination inputs (retrograde model, fm); design: species or system human; conditions: PBPK input
CYP2C19 = CYP2C19 (Homo sapiens, UniProt P33261); assay: Reversible CYP inhibition in human liver microsomes
CYP2B6 = conditions: hepatocytes
Procedure: respectively; XenoTech) were treated once daily for 3 consecutive days and cultured according
to previously described methods.2-4 Each culture well was treated with supplemented modified Chee's medium (0.2 mL) containing 0.1% v/v d imethylsulfoxide (DM SO ; vehicle control),
μmol/L) or 1 of 3 known human CYP enzyme inducers (omeprazole 50 μmol/L, phenobarbital
Cultures were visualized with a
representative well from each treatment group was photographed with a PAXcam 5 (MIS, Inc.
Villa Park, IL, USA) digital camera to document morphological integrity.
β-mercaptoethanol (1:100), and the cell lysates were stored at −80°C. For each hepatocyte preparation, media from 3 wells per treatment group were aspirated, and 250 μL buf f er RLT was added to each well. The cell lysates were mixed by shaking (10 minutes at 800 rpm) and total RNA was isolated with a MagMAX-96 (Ambion/ Thermo Fisher Scientific) for Microarrays Kit using the RNeasy Mini Kit (Qiagen Inc., Germantown, MD, USA). The analysis of RNA integrity was carried out with the RNA 6000 Nano Assay Kit on an Agilent 2100 Bioanalyzer (Agilent Technologies, Inc., Santa Clara, CA, USA). […]
prepared samples were stored at −20°C prior to analysis by quantitative real-time (qRT)- […]

OATP1B1 = target: T1, OATP1B1 (Homo sapiens, UniProt Q9Y6L6)
T1 sequence (Q9Y6L6 1-691): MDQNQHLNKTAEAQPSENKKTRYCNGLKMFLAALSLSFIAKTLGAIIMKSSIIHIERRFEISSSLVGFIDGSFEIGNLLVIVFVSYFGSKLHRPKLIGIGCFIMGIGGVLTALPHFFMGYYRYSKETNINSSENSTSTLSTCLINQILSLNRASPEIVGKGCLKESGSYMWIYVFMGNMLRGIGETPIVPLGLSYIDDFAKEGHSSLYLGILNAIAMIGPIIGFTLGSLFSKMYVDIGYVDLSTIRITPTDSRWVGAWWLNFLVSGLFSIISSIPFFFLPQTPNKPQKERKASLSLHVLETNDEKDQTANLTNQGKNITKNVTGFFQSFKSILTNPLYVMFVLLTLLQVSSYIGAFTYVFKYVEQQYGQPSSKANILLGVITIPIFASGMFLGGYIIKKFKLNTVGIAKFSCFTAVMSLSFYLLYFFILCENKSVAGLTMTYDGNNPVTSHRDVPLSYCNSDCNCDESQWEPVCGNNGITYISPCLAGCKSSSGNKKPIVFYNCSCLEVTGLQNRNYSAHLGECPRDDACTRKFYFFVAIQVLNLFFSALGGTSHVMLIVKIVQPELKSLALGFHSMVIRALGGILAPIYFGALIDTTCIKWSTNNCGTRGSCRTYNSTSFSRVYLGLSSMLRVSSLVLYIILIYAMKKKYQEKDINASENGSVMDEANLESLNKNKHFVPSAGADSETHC

OATP1B3 = target: T2, OATP1B3 (Homo sapiens, UniProt Q9NPD5)
T2 sequence (Q9NPD5 1-702): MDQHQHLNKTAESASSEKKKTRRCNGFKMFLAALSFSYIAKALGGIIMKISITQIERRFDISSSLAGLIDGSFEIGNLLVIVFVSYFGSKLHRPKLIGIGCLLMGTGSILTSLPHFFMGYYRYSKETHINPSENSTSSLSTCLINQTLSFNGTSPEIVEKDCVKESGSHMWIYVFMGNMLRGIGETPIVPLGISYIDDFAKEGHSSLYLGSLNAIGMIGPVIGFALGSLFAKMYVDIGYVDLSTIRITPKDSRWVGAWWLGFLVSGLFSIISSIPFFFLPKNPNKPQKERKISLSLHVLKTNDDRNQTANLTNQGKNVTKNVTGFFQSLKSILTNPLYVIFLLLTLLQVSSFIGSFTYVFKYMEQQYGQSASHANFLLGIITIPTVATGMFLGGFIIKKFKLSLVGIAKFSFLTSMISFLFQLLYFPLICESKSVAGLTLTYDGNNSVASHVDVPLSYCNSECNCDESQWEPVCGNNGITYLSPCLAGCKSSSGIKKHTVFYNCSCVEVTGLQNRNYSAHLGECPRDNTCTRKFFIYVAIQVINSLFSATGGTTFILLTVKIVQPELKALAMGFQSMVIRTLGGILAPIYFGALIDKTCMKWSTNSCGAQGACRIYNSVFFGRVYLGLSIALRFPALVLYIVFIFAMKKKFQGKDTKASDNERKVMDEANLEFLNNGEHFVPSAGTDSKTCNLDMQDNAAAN

UGT1A9 [1] = target: T3, UGT1A9 (Homo sapiens, UniProt O60656); design: method as in PMID 38123352; conditions: cited from earlier work
T3 sequence (O60656 26-530): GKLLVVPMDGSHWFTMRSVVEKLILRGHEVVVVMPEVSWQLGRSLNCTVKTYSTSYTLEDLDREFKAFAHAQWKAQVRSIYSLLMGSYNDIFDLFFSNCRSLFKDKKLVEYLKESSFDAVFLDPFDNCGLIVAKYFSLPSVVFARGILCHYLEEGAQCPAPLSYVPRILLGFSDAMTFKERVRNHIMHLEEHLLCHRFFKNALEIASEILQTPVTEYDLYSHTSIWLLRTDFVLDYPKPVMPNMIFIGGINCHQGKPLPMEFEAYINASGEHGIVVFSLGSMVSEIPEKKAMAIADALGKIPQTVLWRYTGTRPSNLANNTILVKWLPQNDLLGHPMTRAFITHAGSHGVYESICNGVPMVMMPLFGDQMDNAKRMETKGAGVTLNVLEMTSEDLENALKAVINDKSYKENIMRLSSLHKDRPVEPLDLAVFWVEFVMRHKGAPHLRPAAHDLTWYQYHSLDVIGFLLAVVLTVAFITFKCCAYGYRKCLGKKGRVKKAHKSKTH

UGT1A9 [2] = target: T3, UGT1A9; assay: PBPK elimination inputs (retrograde model, fm, KM sensitivity); conditions: PBPK input
UGT2B4 = target: T4, UGT2B4 (Homo sapiens, UniProt P06133); assay: as above; conditions: PBPK input
T4 sequence (P06133 24-528): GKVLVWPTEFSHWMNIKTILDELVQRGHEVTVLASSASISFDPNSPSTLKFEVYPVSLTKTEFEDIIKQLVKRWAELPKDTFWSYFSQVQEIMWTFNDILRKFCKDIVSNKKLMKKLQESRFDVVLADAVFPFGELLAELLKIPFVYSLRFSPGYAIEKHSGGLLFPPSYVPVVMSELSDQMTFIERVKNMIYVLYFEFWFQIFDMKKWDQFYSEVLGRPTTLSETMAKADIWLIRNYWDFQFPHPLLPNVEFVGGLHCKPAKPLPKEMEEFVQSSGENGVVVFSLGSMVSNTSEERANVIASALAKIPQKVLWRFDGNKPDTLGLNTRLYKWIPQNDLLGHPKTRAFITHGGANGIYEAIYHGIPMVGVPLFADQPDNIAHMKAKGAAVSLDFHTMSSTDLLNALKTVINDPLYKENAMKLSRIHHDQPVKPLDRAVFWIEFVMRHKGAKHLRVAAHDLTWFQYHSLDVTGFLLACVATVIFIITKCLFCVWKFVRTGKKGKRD

[3] = Fig 2C, soticlestat 300 mg alone or with mefenamic acid, n = 14

Sequence of CYP2C19 (P33261 whole entry): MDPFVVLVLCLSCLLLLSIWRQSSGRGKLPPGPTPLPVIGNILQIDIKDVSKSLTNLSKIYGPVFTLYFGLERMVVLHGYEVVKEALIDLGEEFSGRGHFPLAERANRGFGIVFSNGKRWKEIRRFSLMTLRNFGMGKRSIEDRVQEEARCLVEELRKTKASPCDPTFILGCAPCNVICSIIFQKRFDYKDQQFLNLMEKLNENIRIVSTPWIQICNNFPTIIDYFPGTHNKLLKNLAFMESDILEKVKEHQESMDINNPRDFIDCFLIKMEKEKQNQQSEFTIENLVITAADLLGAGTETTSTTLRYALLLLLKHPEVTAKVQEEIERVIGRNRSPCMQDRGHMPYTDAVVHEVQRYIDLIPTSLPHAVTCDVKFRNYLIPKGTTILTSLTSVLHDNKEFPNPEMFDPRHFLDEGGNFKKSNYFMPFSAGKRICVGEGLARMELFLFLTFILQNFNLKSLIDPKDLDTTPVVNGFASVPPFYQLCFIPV

SMILES: O=C(c1cccnc1-c1ccncc1)N1CCC(O)(Cc2ccccc2)CC1 [Soticlestat]
- fmCYP3A (CYP3A4): 0.1
- Ki (CYP2C19): 9.5 µM
- fumic (CYP2C19; human): 0.88
- inhibition of CYP2C19 (CYP2C19; microsomes): low double‐digit micromolar values
- induction of CYP2B6 (CYP2B6): nor did soticlestat induce
- inhibition of OATP1B1 (OATP1B1): did not demonstrate clinically relevant inhibition
- inhibition of OATP1B3 (OATP1B3): did not demonstrate clinically relevant inhibition
- AUC0-inf observed (UGT1A9 [1]; [3]): 1526 ng·h/mL
- Cmax observed (UGT1A9 [1]; [3]): 1414 ng/mL
- effect on soticlestat exposure (UGT1A9 [1]; with mefenamic acid): did not affect soticlestat exposure
- fmUGT1A9 (UGT1A9 [2]): 0.1
- fmUGT2B4 (UGT2B4): 0.8
